The text below walks through data of patent US7264832B2, “Cyclooxygenase-2 inhibitory withanolide compositions and method” (Board of Trustees of Michigan State University, priority 2002, dated 2007).

As usually defined, the inhibition is how much of the control response was suppressed.

The target in experiment [1] is T1, COX-2 enzyme (human PGHS-2) isolated from insect cells (Homo sapiens, UniProt P35354).
T1 sequence (P35354 18-604): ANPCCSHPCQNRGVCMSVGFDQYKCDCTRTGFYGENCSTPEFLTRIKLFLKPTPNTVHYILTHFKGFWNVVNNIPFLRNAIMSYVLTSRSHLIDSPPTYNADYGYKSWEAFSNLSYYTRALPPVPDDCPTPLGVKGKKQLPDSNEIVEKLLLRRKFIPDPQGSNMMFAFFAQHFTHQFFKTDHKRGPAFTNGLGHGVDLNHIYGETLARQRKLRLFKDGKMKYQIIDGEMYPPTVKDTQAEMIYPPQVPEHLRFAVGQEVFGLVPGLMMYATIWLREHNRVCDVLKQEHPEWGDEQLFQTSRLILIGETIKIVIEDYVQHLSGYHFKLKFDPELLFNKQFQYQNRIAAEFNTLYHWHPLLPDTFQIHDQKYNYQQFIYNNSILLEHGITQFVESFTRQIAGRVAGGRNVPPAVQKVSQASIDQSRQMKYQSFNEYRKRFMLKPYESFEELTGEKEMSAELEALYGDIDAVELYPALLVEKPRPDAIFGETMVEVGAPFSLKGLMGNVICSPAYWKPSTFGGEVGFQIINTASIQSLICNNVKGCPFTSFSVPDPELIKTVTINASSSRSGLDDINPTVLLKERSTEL
The experiment in a line: Cyclooxygenase enzyme inhibitory assay, COX-2 (initial rate of O2 uptake).
Description: (§1) The withanolides isolated from the leaves were evaluated for their cyclooxygenase (COX) enzyme inhibitory activity using prostaglandin endoperoxide synthase isozymes-1 (COX-1) and PGHS-2 (COX-2).
(§2) Cyclooxygenase enzyme inhibitory assay. COX-1 enzyme was prepared from ram seminal vesicles and COX-2 enzyme was isolated from insect cells cloned with human PGHS-2 enzyme. The inhibitory effects of test compounds on COX-1 and -2 were measured by monitoring the initial rate of 02 uptake using an oxygen electrode (Instech Laboratories, Plymouth Meeting, Pa.) attached to a biological oxygen monitor (Yellow Spring Instrument, Inc., Yellow Spring, Ohio) at 37° C. The enzymes were diluted (1:1) with Tris buffer (pH 7, 10-15 μl) and the test compounds (100 μg/ml, 10 μl) dissolved in DMSO were added to the assay mixture composed of 3 ml of 0.1 M Tris HCl, pH 7, 1 mmol phenol and 85 μg of hemoglobin. […] The instantaneous inhibition was measured by using Quick Log Data acquisition and control computer software (Strawberry Tree Inc., Sunnyvale, Calif., USA).

A short description of experiment [2]: Antioxidant activity: inhibition of Fe2+-initiated lipid peroxidation in large unilamellar vesicles. The note with it: 100 ppm (100 μg/ml), at 20 min, relative to DMSO control. On the procedure:
The ability of withanolides to inhibit lipid peroxidation in a model system was used to determine whether they could act as antioxidants. The assay was conducted by using large unilamellar vesicles and peroxidation was initiated by adding Fe^2+.
Antioxidant activity. […] The percentage of inhibition was calculated with respect to DMSO control. All compounds were tested at 100 μg/ml and the positive controls BHA, BHT and TBHQ were tested at 10 μM.

Experiment [3] deals with T2, COX-1 enzyme (prostaglandin endoperoxide synthase isozyme-1) prepared from ram seminal vesicles (Ovis aries, UniProt P05979).
T2 sequence (P05979 25-600): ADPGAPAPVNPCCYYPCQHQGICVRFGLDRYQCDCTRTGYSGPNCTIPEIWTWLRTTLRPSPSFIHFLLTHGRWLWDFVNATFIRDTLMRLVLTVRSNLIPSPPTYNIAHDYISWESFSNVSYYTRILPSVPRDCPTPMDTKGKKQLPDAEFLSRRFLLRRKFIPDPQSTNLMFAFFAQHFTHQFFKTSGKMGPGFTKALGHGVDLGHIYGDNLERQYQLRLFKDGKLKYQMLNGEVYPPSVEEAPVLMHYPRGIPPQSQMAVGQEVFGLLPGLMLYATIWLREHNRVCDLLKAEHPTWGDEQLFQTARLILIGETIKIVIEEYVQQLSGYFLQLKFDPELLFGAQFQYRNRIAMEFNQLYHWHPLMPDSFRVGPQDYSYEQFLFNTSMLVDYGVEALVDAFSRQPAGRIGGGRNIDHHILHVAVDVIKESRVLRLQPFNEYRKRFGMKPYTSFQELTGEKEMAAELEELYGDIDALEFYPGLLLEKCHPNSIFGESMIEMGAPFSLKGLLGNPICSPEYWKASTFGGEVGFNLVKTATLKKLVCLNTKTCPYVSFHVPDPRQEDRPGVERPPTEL
In words: Cyclooxygenase enzyme inhibitory assay, COX-1 (initial rate of O2 uptake).
Description: as §1, §2

The compound “4-(1-hydroxy-2,2-dimethylcyclo-propanone)-2,3-dihydrowithaferin A [Compound 5]” gave a COX-2 enzyme inhibition in experiment [1] (50 μg/ml) of 15%. In experiment [2], the “inhibition of lipid peroxidation” value is recorded as “did not show activity”.

For `COc1ccc2cc([C@H](C)C(=O)O)ccc2c1` [naproxen, reference compound], the figures for the inhibition at 2.5 µg/mL in experiment [3] (read-out: COX-1 inhibition) and in experiment [1] (read-out: COX-2 inhibition) were 79% and 95%, respectively. Compound “4,16-dihydroxy-5β,6β-epoxyphysagulin D [Compound 4]” returned a COX-2 enzyme inhibition in experiment [1] (50 μg/ml) of 5%. Also, in experiment [2], the “inhibition of lipid peroxidation” value is on record as 40%. As to `CC(=O)Oc1ccccc1C(=O)O` [Aspirin, reference compound], the COX-1 inhibition in experiment [3] (tested at 180 μg/ml) worked out at 61%. The inhibition at 180 µg/mL in experiment [1] (read-out: COX-2 inhibition) was 7%. Consider `CC1=C(CO)C(=O)O[C@@H]([C@@H](C)[C@H]2CC[C@H]3[C@@H]4C[C@H]5O[C@]56[C@@H](O)C=CC(=O)[C@]6(C)[C@H]4CC[C@]23C)C1` [Compound 6, withaferin A], for which the COX-2 enzyme inhibition in experiment [1] (100 μg/ml) is on record as 39%. The “inhibition of lipid peroxidation” value in experiment [2] is on record as “did not show activity”. The like results for `CC1=C(CO)C(=O)O[C@@H]([C@@H](C)[C@H]2CC[C@H]3[C@@H]4CC=C5C[C@@H](O[C@@H]6O[C@H](CO)[C@@H](O)[C@H](O)[C@H]6O)C[C@H](O)[C@]5(C)[C@H]4CC[C@]23C)C1` [Compound 11, physagulin D] were, in that order, 14% and 55%. As for `CC1=C(CO)C(=O)O[C@@H]([C@@H](C)[C@H]2CC[C@H]3[C@@H]4CC=C5C[C@@H](O[C@@H]6O[C@H](CO[C@@H]7O[C@H](CO)[C@@H](O)[C@H](O)[C@H]7O)[C@@H](O)[C@H](O)[C@H]6O)C[C@H](O)[C@]5(C)[C@H]4CC[C@]23C)C1` [Compound 12, withanolide IV], the COX-2 enzyme inhibition in experiment [1] (100 μg/ml) stood at 23%. In addition, the “inhibition of lipid peroxidation” value in experiment [2] is recorded as “did not show activity”.

In turn, `CC1=C(CO)C(=O)OC(C(C)C2CCC3C4CC5OC56C(O)CCC(=O)C6(C)C4CCC23C)C1` (centres unmarked) [Compound 7, 2,3-dihydrowithaferin A] showed a COX-2 enzyme inhibition in experiment [1] (100 μg/ml) of 27%. In addition, the “inhibition of lipid peroxidation” value in experiment [2] came out at 5%. In turn, `CC1=C(CO[C@@H]2O[C@H](CO)[C@@H](O)[C@H](O)[C@H]2O)C(=O)OC([C@@H](C)[C@H]2CC[C@H]3[C@@H]4C[C@H]5O[C@]56[C@@H](O)[C@@H](O)CC(=O)[C@]6(C)[C@H]4CC[C@]23C)C1` (stereo partly drawn) [Compound 3, 27-O-β-D-glucopyranosyl viscosalactone B] returned a COX-2 enzyme inhibition in experiment [1] (50 μg/ml) of 7%.

For the compound 23,24-dihydrowithaferin A [Compound 9], the COX-1 activity entry in experiment [3] (100 μg/ml) is listed as “neither COX-1 nor COX-2 activities”. Besides, the COX-2 enzyme inhibition entry in experiment [1] (100 μg/ml) is recorded as “neither COX-1 nor COX-2 activities”. In addition, the “inhibition of lipid peroxidation” value in experiment [2] was “did not show activity”. `CC1=C(CO)C(=O)O[C@@H]([C@@H](C)[C@H]2CC[C@H]3[C@@H]4C[C@H]5O[C@]56[C@@H](O)[C@@H](O)CC(=O)[C@]6(C)[C@H]4CC[C@]23C)C1` [Compound 8, viscosalactone B]: the COX-2 enzyme inhibition in experiment [1] (100 μg/ml) was 35%. Also, the “inhibition of lipid peroxidation” value in experiment [2] is on record as “did not show activity”. Regarding “physagulin D (1→6)-β-D-glucopyranosyl-(1→4)-β-D-glucopyranoside [Compound 1]”, the COX-2 enzyme inhibition in experiment [1] (50 μg/ml) was 15%. As for `CC1=C(CO[C@@H]2O[C@H](CO)[C@@H](O)[C@H](O)[C@H]2O)C(=O)O[C@@H]([C@@H](C)[C@H]2CC[C@H]3[C@@H]4C[C@H]5O[C@]56[C@@H](O)C=CC(=O)[C@]6(C)[C@H]4CC[C@]23C)C1` [Compound 10, sitoindoside IX], the inhibition at 100 µg/mL in experiment [1] (read-out: COX-2 enzyme inhibition) came out at 13%. Moreover, the “inhibition of lipid peroxidation” value in experiment [2] is on record as 44%. “27-O-β-D-glucopyranosyl physagulin D [Compound 2]” showed a COX-2 enzyme inhibition in experiment [1] (50 μg/ml) of 9%.
